This note sets out measurements from patent publication US20060169172A1, “Disazo compound and ink composition containing the same” (priority 2003, published 2006).

Common to all, as to format: physicochemical
Data set [1] is described as follows: Moisture fastness test (bleeding, visual inspection). The settings on record: 50° C., 90% RH, 150 hours. The arrangement: key: ◯: No bleeding is observed.; Δ: Bleeding is a little observed.; X: Bleeding is seriously observed. How it is done: (§1) The solution of the composition shown in Table 2 below, containing the disazo compound (a dyestuff component) obtained in Example 1 or 2 was prepared and filtered with a 0.45 μm membrane filter to obtain each water-based yellow ink composition for ink-jet printing. Ion-exchange water was used. Water and ammonium hydroxide were added so that the pH of the ink composition is 8 to 10 and the total amount is 100 parts.
(§2) Ink-jet recording is carried out on four kinds of recording materials of plain paper, Professional photo paper (PR-101 (made by Canon Inc.)), Photo glossy film (HG-201 (made by Canon Inc.)) and Paper for PM photo (made by SEIKO EPSON CORP.), using an ink-jet printer (Trade name: BJ S-630 from Canon Inc.) (hereinafter, described as follows, PR: Professional photo paper, HG: Photo glossy film, PM: Paper for PM photo).
(§3) A sample piece having a recorded image printed on the sample piece was left for standing at 24° C., 12 ppm and 60% RH for 2 hours using an ozone weather meter (Model OMS-H made by Suga Test Instruments Co., Ltd.). Densities (D values) before and after the test were measured. (4) A sample piece having a recorded image printed on the sample piece for a moisture fastness test was left for standing at 50° C. and 90% RH for 150 hours in a thermo-hygrostat (made by Ouyou giken sangyou Corp.). Bleeding degrees before and after the test was evaluated by visual inspection.
◯: No bleeding is observed.
Δ: Bleeding is a little observed.
X: Bleeding is seriously observed.
(§4) The results of evaluation of the ink composition prepared using the compound obtained in Example 1 are referred to Evaluation Example 1, and similarly the results of evaluation of the ink composition prepared using the compound obtained in Example 2 are referred to Evaluation Example 2. The compound represented by the following formula (6) and the compound represented by the following formula (7) were used as Comparative Example 1 and Comparative Example 2 and those were evaluated at the same optical density as those of Evaluation Examples 1 and 2 in the composition shown in Table 2.

Data set [2] can be described thus: Test for ozone fastness (ozone weather meter). The note with it: 24° C., 12 ppm, 60% RH, 2 hours. How it is done: as §1, §2, §3, §4
A short description of data set [3]: Test for light fastness (xenon weather meter). The settings on record: 24° C., 60% RH, 50 hours. As to the method: as §1, §2
The recorded image was irradiated at 24° C. and 60% RH for 50 hours using a xenon weather meter (made by Atlas Corp.). Densities (D values) of the images before and after the irradiation were measured by means of the above calorimetric system.
Residual ratio (%)=D value after irradiation/D value before irradiation
as §4

With `COc1cc(N=Nc2cccc(S(=O)(=O)[O-])c2)ccc1Nc1nc(Nc2ccc(N=Nc3cccc(S(=O)(=O)[O-])c3)cc2OC)nc(N(CCO)CCO)n1.[Na+].[Na+]` [Comparative Example 1], the “Moisture Fastness” value in data set [1] (HG (Photo glossy film)) is on record as “◯-Δ”; in data set [1] (PM (Paper for PM photo)), “◯-Δ”; in data set [1] (PR (Professional photo paper)) it was “◯”; in data set [1] (Plain Paper), “◯”. In addition, the “Ozone Fastness (residual ratio)” value in data set [2] (HG (Photo glossy film)) is 91%; in data set [2] (PM (Paper for PM photo)), 97%; in data set [2] (PR (Professional photo paper)), 89%; in data set [2] (Plain Paper), 99%. Besides, the “Light Fastness (residual ratio)” value in data set [3] (HG (Photo glossy film)) is reported as 67%; in data set [3] (PM (Paper for PM photo)), 86%; in data set [3] (PR (Professional photo paper)), 80%; in data set [3] (Plain Paper), 78%.

Regarding `COc1cc(N=Nc2cccc(S(=O)(=O)[O-])c2)ccc1NC(=O)Nc1ccc(N=Nc2cccc(S(=O)(=O)[O-])c2)cc1OC.[Na+].[Na+]` [Comparative Example 2], the “Moisture Fastness” value was “Δ” in data set [1] (HG (Photo glossy film)), “X” in data set [1] (PM (Paper for PM photo)), “◯” in data set [1] (PR (Professional photo paper)) and “◯” in data set [1] (Plain Paper). The “Ozone Fastness (residual ratio)” value is recorded as 74% in data set [2] (HG (Photo glossy film)), 97% in data set [2] (PM (Paper for PM photo)), 82% in data set [2] (PR (Professional photo paper)) and 98% in data set [2] (Plain Paper). For the same compound, the “Light Fastness (residual ratio)” value in data set [3] (HG (Photo glossy film)) was 63%; in data set [3] (PM (Paper for PM photo)), 94%; in data set [3] (PR (Professional photo paper)), 82%; in data set [3] (Plain Paper) it was 81%.
